Data taken from patent US20240218022A1, “ANTI-VISTA MACROCYCLIC PEPTIDES AND COMPOSITIONS” (BRISTOL-MYERS SQUIBB COMPANY, priority 2022, published 2024).
Starred links: 1 amine or outer side, 2 acyl side, 3 side chain; linkers in the order of their positions; H or OH if unused. Positions of bridges follow the written chain, without caps; N, C: chain ends. Non-standard residues stand in square brackets, D forms with d. Residues, ends and D or L forms follow the SMILES beside them. βAsp = O=C(O)[C@H](CC(=O)[*:2])N[*:1]; Ala(cPr) = N[C@@H](CC1CC1)C(=O)O; Aad = N[C@@H](CCCC(=O)O)C(=O)O; Cha = N[C@@H](CC1CCCCC1)C(=O)O; Ahp(2) = CCCCC[C@H](N)C(=O)O; NMeNle = CCCC[C@H](NC)C(=O)O; Tle = CC(C)(C)[C@H](N)C(=O)O; NMeS = CN[C@@H](CO)C(=O)O; NHexGly = CCCCCCNCC(=O)O; Orn = NCCC[C@H](N)C(=O)O; Aun = NCCCCCCCCCCC(=O)O; Abu = CC[C@H](N)C(=O)O; AEEA = NCCOCCOCC(=O)O

Molecular target: T1, mouse VISTA (mVISTA) (Mus musculus, UniProt Q9D659)
T1 construct: expressed in transfected cells; host or cells: Human embryonic kidney 293T cells
T1 sequence (Q9D659 33-308): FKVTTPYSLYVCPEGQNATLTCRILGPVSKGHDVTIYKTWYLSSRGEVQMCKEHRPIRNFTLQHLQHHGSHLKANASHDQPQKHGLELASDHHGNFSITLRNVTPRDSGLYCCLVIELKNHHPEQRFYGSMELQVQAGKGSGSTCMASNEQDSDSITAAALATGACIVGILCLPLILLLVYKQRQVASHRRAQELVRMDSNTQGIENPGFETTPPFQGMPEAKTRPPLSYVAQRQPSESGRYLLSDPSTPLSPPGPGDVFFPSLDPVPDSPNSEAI
Experiment: Cell-Based Binding High-Content Assay For mVISTA (HC CBA mVISTA)
Conditions: cell-based binding high-content assay, mVISTA; read-out: HC CBA miPr ISTA IC50
Summary of the method: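 Read-out: Alexa 647–streptavidin signal imaged on fixed, Hoechst-stained mVISTA-293T cells, with IC50 taken from a four-parameter logistic curve. Compounds competed with 2 nM biotinylated peptide for 30 min at room temperature, tested under both no-wash and wash (1 h compound, media exchange, 1 h) formats.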

IC50 [nM]	SMILES
27.6	CCCCCCN1CC(=O)N[C@@H](Cc2ccc(O)cc2)C(=O)N[C@@H](C)C(=O)N[C@@H](CC(N)=O)C(=O)N[C@@H](CCCNC(=N)N)C(=O)N(C)[C@@H](CCCC)C(=O)N[C@@H](CCCCC)C(=O)N2CCC[C@H]2C(=O)N[C@@H](C(C)(C)C)C(=O)N[C@@H](CO)C(=O)N[C@H](C(=O)N[C@@H](CC(=O)NCCOCCOCC(=O)N[C@@H](CC(=O)O)C(=O)NCCOCCOCC(=O)NCCCCCCCCCCC(=O)O)C(=O)O)CSCC(=O)N[C@@H](Cc2ccccc2)C(=O)N[C@@H](Cc2ccc(O)cc2)C(=O)N[C@@H](CC(=O)O)C1=O [compound 2058] ({CH2CO}-FYD[NHexGly]YANR[NMeNle][Ahp(2)]P[Tle]SC[βAsp][AEEA]D[AEEA][Aun]-OH; thioether N-14)
24.7	CCCCCCN1CC(=O)N[C@@H](Cc2ccc(O)cc2)C(=O)N[C@@H](CC)C(=O)N[C@@H](CC(N)=O)C(=O)N[C@@H](CCCN)C(=O)N(C)[C@@H](CCCC)C(=O)N[C@@H](CCCCC)C(=O)N2CCC[C@H]2C(=O)N[C@@H](C(C)(C)C)C(=O)N[C@@H](CO)C(=O)N[C@H](C(=O)N[C@@H](CC(=O)NCCOCCOCC(=O)N[C@@H](CC(=O)O)C(=O)NCCOCCOCC(=O)NCCCCCCCCCCC(=O)O)C(=O)O)CSCC(=O)N[C@@H](Cc2ccccc2)C(=O)N[C@@H](Cc2ccc(O)cc2)C(=O)N[C@@H](CC(=O)O)C1=O [compound 2060] ({CH2CO}-FYD[NHexGly]Y[Abu]N[Orn][NMeNle][Ahp(2)]P[Tle]SC[βAsp][AEEA]D[AEEA][Aun]-OH; thioether N-14)
49.2	CCCCCCN1CC(=O)N[C@@H](Cc2ccc(O)cc2)C(=O)N[C@@H](CC2CC2)C(=O)N[C@@H](CC(N)=O)C(=O)N[C@@H](CCCN)C(=O)N(C)[C@@H](CCCC)C(=O)N[C@@H](CCCCC)C(=O)N2CCC[C@H]2C(=O)N[C@@H](C(C)(C)C)C(=O)N[C@@H](CO)C(=O)N[C@H](C(=O)N[C@@H](CC(=O)NCCOCCOCC(=O)N[C@@H](CC(=O)O)C(=O)NCCOCCOCC(=O)NCCCCCCCCCCC(=O)O)C(=O)O)CSCC(=O)N[C@@H](Cc2ccccc2)C(=O)N[C@@H](Cc2ccc(O)cc2)C(=O)N[C@@H](CC(=O)O)C1=O [compound 2062] ({CH2CO}-FYD[NHexGly]Y[Ala(cPr)]N[Orn][NMeNle][Ahp(2)]P[Tle]SC[βAsp][AEEA]D[AEEA][Aun]-OH; thioether N-14)

More lines, now with the values behind:

SMILES	IC50 [nM]
CCCCCCN1CC(=O)N[C@@H](Cc2ccc(O)cc2)C(=O)N[C@@H](CCCC(=O)O)C(=O)N[C@@H](CC(N)=O)C(=O)N[C@@H](CCCNC(=N)N)C(=O)N(C)[C@@H](CCCC)C(=O)N[C@@H](CCCCC)C(=O)N2CCC[C@H]2C(=O)N[C@@H](C(C)(C)C)C(=O)N[C@@H](CO)C(=O)N[C@H](C(=O)N[C@@H](CC(=O)NCCOCCOCC(=O)N[C@@H](CC(=O)O)C(=O)NCCOCCOCC(=O)NCCCCCCCCCCC(=O)O)C(=O)O)CSCC(=O)N[C@@H](Cc2ccccc2)C(=O)N[C@@H](Cc2ccc(O)cc2)C(=O)N[C@@H](CC(=O)O)C1=O [compound 2054] ({CH2CO}-FYD[NHexGly]Y[Aad]NR[NMeNle][Ahp(2)]P[Tle]SC[βAsp][AEEA]D[AEEA][Aun]-OH; thioether N-14)	23.2
CCCCCCN1CC(=O)N[C@@H](Cc2ccc(O)cc2)C(=O)N[C@@H](CC2CCCCC2)C(=O)N[C@@H](CC(N)=O)C(=O)N[C@@H](CCCN)C(=O)N(C)[C@@H](CCCC)C(=O)N[C@@H](CCCCC)C(=O)N2CCC[C@H]2C(=O)N[C@@H](C(C)(C)C)C(=O)N[C@@H](CO)C(=O)N[C@H](C(=O)N[C@@H](CC(=O)NCCOCCOCC(=O)N[C@@H](CC(=O)O)C(=O)NCCOCCOCC(=O)NCCCCCCCCCCC(=O)O)C(=O)O)CSCC(=O)N[C@@H](Cc2ccccc2)C(=O)N[C@@H](Cc2ccc(O)cc2)C(=O)N[C@@H](CC(=O)O)C1=O [compound 2055] ({CH2CO}-FYD[NHexGly]Y[Cha]N[Orn][NMeNle][Ahp(2)]P[Tle]SC[βAsp][AEEA]D[AEEA][Aun]-OH; thioether N-14)	32.7
CCCCCCN1CC(=O)N[C@@H](Cc2ccc(O)cc2)C(=O)N[C@@H](CCCC(=O)O)C(=O)N[C@@H](CC(N)=O)C(=O)N[C@@H](CCCN)C(=O)N(C)[C@@H](CCCC)C(=O)N[C@@H](CCCCC)C(=O)N2CCC[C@H]2C(=O)N[C@@H](C(C)(C)C)C(=O)N[C@@H](CO)C(=O)N[C@H](C(=O)N[C@@H](CC(=O)NCCOCCOCC(=O)N[C@@H](CC(=O)O)C(=O)NCCOCCOCC(=O)NCCCCCCCCCCC(=O)O)C(=O)O)CSCC(=O)N[C@@H](Cc2ccccc2)C(=O)N[C@@H](Cc2ccc(O)cc2)C(=O)N[C@@H](CC(=O)O)C1=O [compound 2056] ({CH2CO}-FYD[NHexGly]Y[Aad]N[Orn][NMeNle][Ahp(2)]P[Tle]SC[βAsp][AEEA]D[AEEA][Aun]-OH; thioether N-14)	26.1
CCCCCCN1CC(=O)N[C@@H](Cc2ccc(O)cc2)C(=O)N[C@@H](CC)C(=O)N[C@@H](CC(N)=O)C(=O)N[C@@H](CCCNC(=N)N)C(=O)N(C)[C@@H](CCCC)C(=O)N[C@@H](CCCCC)C(=O)N2CCC[C@H]2C(=O)N[C@@H](C(C)(C)C)C(=O)N[C@@H](CO)C(=O)N[C@H](C(=O)N[C@@H](CC(=O)NCCOCCOCC(=O)N[C@@H](CC(=O)O)C(=O)NCCOCCOCC(=O)NCCCCCCCCCCC(=O)O)C(=O)O)CSCC(=O)N[C@@H](Cc2ccccc2)C(=O)N[C@@H](Cc2ccc(O)cc2)C(=O)N[C@@H](CC(=O)O)C1=O [compound 2059] ({CH2CO}-FYD[NHexGly]Y[Abu]NR[NMeNle][Ahp(2)]P[Tle]SC[βAsp][AEEA]D[AEEA][Aun]-OH; thioether N-14)	37.4
CCCCCCN1CC(=O)N[C@@H](Cc2ccc(O)cc2)C(=O)N[C@@H](C)C(=O)N[C@@H](CC(N)=O)C(=O)N[C@@H](CCCN)C(=O)N(C)[C@@H](CCCC)C(=O)N[C@@H](CCCCC)C(=O)N2CCC[C@H]2C(=O)N[C@@H](C(C)(C)C)C(=O)N[C@@H](CO)C(=O)N[C@H](C(=O)N[C@@H](CC(=O)NCCOCCOCC(=O)N[C@@H](CC(=O)O)C(=O)NCCOCCOCC(=O)NCCCCCCCCCCC(=O)O)C(=O)O)CSCC(=O)N[C@@H](Cc2ccccc2)C(=O)N[C@@H](Cc2ccc(O)cc2)C(=O)N[C@@H](CC(=O)O)C1=O [compound 2061] ({CH2CO}-FYD[NHexGly]YAN[Orn][NMeNle][Ahp(2)]P[Tle]SC[βAsp][AEEA]D[AEEA][Aun]-OH; thioether N-14)	21.5
CCCCCCN1CC(=O)N[C@@H](Cc2ccc(O)cc2)C(=O)N[C@@H](CC(C)C)C(=O)N[C@@H](CC(=O)O)C(=O)N[C@@H](CCCNC(=N)N)C(=O)N(C)[C@@H](CO)C(=O)N[C@@H](CCCCC)C(=O)N2CCC[C@H]2C(=O)N[C@@H](C(C)(C)C)C(=O)N[C@@H](CC(N)=O)C(=O)N[C@H](C(=O)N[C@@H](CC(=O)NCCOCCOCC(=O)N[C@@H](CC(=O)O)C(=O)NCCOCCOCC(=O)NCCCCCCCCCCC(=O)O)C(=O)O)CSCC(=O)N[C@@H](Cc2ccccc2)C(=O)N[C@@H](Cc2c[nH]c3ccccc23)C(=O)N[C@@H](CC(=O)O)C1=O [compound 2066] ({CH2CO}-FWD[NHexGly]YLDR[NMeS][Ahp(2)]P[Tle]NC[βAsp][AEEA]D[AEEA][Aun]-OH; thioether N-14)	35.3
